Data: patent US7129243B2, “Peptide compounds” (Astellas Pharma Inc., priority 2001, dated 2006)

Tested on: production of nitric oxide in murine macrophage cell line RAW264.7
Test: Assay for inhibitory activity on the production of nitric oxide
Type: cell-based
Conditions: Mus musculus; test compound 10^−6 M; RAW264.7 cells activated with LPS (1 μg/ml) and INF γ (3 u/ml) for 18–24 hours; NO2^− by Griess reagent
Method: The murine macrophage cell line RAW264.7 (American Type Culture Collection, No. TIB71) was used in this study. RAW264.7 cells were grown on […] plastic culture flasks at 37° C., 5% in Dulbecco's modified Eagle's medium (DMEM) supplemented with L-glutamine, penicillin, streptomycin and 10% heat-inactivated fetal bovine serum. They were removed from culture flasks by rubber cell scraper and were centrifuged and resuspended in DEM without phenol red. They were plated in 96-well microtiter plates (10^5 cells per well) and allowed to adhere over 2 hours. The test samples were added and the cells were preincubated for 1 hour. Thereafter the cells were activated with both of lipopolysaccharide (LPS) (1 μg/ml) and interferon γ (INF γ) (3 u/ml) for 18-24 hours. An equal volume of Griess reagent (1% sulfanilamide/0.1% N-naphthylethylenediamine dihydrochloride/2.5% H3PO4) was added and the cells were incubated at room temperature for 10 minutes. The absorbance was read at 570 nm using microplate reader and NO2^- was measured using NaNO2 as a standard.

O=C(N[C@@H](Cc1ccccn1)C(=O)NCC(=O)N1CCC(OCC(F)(F)F)CC1)c1cc2cc(Cl)ccc2o1 [Compound (f), 5-Chloro-N-[(1S)-2-oxo-2-({2-oxo-2-[4-(2,2,2-trifluoroethoxy)-1-piperidinyl]ethyl}amino)-1-(2-pyridylmethyl)-ethyl]-1-benzofuran-2-carboxamide]
inhibition at 1 µM: 100%

O=C(/C=C/c1ccc(Cl)cc1)N[C@@H](Cc1ccccn1)C(=O)NCC(=O)N1CCC(Oc2ccccc2)CC1 [Compound (e), (2E)-3-(4-Chlorophenyl)-N-[(1S)-2-oxo-2-{[2-oxo-2-(4-phenoxy-1-piperidinyl)ethyl]amino}-1-(2-pyridylmethyl)ethyl]-acrylamide]
inhibition at 1 µM: 100%

O=C(N[C@@H](Cc1ccccn1)C(=O)NCC(=O)N1CCC(Oc2ccccn2)CC1)c1cc2cc(Cl)ccc2o1 [Compound (d), 5-Chloro-N-[(1S)-2-oxo-2-({2-oxo-2-[4-(2-pyridyloxy)-1-piperidinyl]ethyl}amino)-1-(2-pyridylmethyl)ethyl]-1-benzofuran-2-carboxamide]
inhibition at 1 µM: 100%

CC(C)OC1CCN(C(=O)CNC(=O)[C@H](Cc2ccccn2)NC(=O)/C=C/c2ccc(Cl)cc2)CC1 [Compound (g), (2E)-3-(4-Chlorophenyl)-N-[(1S)-2-{[2-(4-isopropoxy-1-piperidinyl)-2-oxoethyl]amino}-2-oxo-1-(2-pyridylmethyl)ethyl]acrylamide]
inhibition at 1 µM: 100%

COc1cccc(OC2CCN(C(=O)CNC(=O)[C@H](Cc3ccccn3)NC(=O)c3cc4cc(Cl)ccc4o3)CC2)n1 [Compound (c), 5-Chloro-N-[(1S)-2-[(2-{4-[(6-methoxy-2-pyridyl)oxy]-1-piperidinyl}-2-oxoethyl)amino]-2-oxo-1-(2-pyridylmethyl)ethyl]-1-benzofuran-2-carboxamide]
inhibition at 1 µM: 100%

O=C(N[C@@H](Cc1ccccn1)C(=O)NCC(=O)N1CCC(Oc2nccs2)CC1)c1cc2cc(Cl)ccc2o1 [Compound (a), 5-Chloro-N-[(1S)-2-oxo-2-({2-oxo-2-[4-(1,3-thiazol-2-yloxy)-1-piperidinyl]ethyl}amino)-1-(2-pyridylmethyl)ethyl]-1-benzofuran-2-carboxamide]
inhibition at 1 µM: 100%

O=C(/C=C/c1ccc(Cl)cc1)N[C@@H](Cc1ccccn1)C(=O)NCC(=O)N1CCC(Oc2cnccn2)CC1 [Compound (b), (2E)-3-(4-Chlorophenyl)-N-[(1S)-2-oxo-2-({2-oxo-2-[4-(2-pyrazinyloxy)-1-piperidinyl]ethyl}amino)-1-(2-pyridylmethyl)ethyl]acrylamide]
inhibition at 1 µM: 97.6%
